Measured values as given in patent US11965039B2, “Compstatin analogues and their medical uses” (priority 2018, dated 2024).
pIC50: −log10 of the molar value. Starred links: 1 amine or outer side, 2 acyl side, 3 side chain; linkers in the order of their positions; H or OH if unused. Positions of bridges follow the written chain, without caps; N, C: chain ends. Non-standard residues stand in square brackets, D forms with d. Residues, ends and D or L forms follow the SMILES beside them. Groups on a side chain read outwards from the residue. *: point of attachment. Trp(1-Me) = Cn1cc(C[C@H](N)C(=O)O)c2ccccc21; C18 diacid = O=C(O)CCCCCCCCCCCCCCCCC(=O)*; γGlu = O=C(O)[C@H](CCC(=O)[*:2])N[*:1]; AEEA = NCCOCCOCC(=O)O; Aoc = NCCCCCCCC(=O)O; Sar = CNCC(=O)O

Tested on: classical complement pathway
Assay: In vitro haemolysis assay (inhibition of classical complement pathway)
Assay type: cell-based, human
Conditions: human serum, sensitized sheep red blood cells; Table 3, given as upper bounds; read-out: IC50, inhibition of hemolysis
Outline: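 Compound dilutions preincubated 15 min at room temperature with diluted human serum (titrated per batch for 70-90% maximal haemolysis), then antibody-sensitized sheep RBC (10^7/well) added for 30 min at 37 °C in Tris/casein buffer, pH 7.4. Stopped with EDTA; haemolysis read at 405 nm; IC50 by 4PL fit.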

| SMILES | pIC50 |
| --- | --- |
| CC[C@H](C)[C@@H]1NC(=O)[C@@H](NC(=O)[C@H](Cc2ccccc2)NC(=O)[C@H](CCC(=O)O)NC(C)=O)CSSC[C@@H](C(=O)N[C@@H](CCC(=O)O)C(=O)NCC(=O)N[C@@H](CCC(=O)O)C(=O)N[C@@H](CCCCNC(=O)CC[C@H](NC(=O)CNC(=O)CC[C@H](NC(=O)CCCCCCCCCCCCCCCCC(=O)O)C(=O)O)C(=O)O)C(N)=O)NC(=O)[C@H](CCCNC(=N)N)NC(=O)[C@H](Cc2c[nH]cn2)NC(=O)[C@H](CCC(=O)O)NC(=O)CNC(=O)[C@H](Cc2c[nH]c3ccccc23)NC(=O)[C@H](CC(=O)O)NC(=O)[C@H](CCC(N)=O)NC(=O)[C@H](Cc2cn(C)c3ccccc23)NC1=O [Compound 134] (Ac-EFCI[Trp(1-Me)]QDWGEHRCEGEK([γGlu-Gly-γGlu-C18 diacid])-NH2; disulfide 3-13) | > 7.00 |
| CC[C@H](C)[C@@H]1NC(=O)[C@@H](NC(=O)[C@H](Cc2ccccc2)NC(=O)[C@H](CCC(=O)O)NC(=O)[C@H](CO)NC(C)=O)CSSC[C@@H](C(=O)N[C@H](C(=O)N[C@@H](CCC(=O)O)C(=O)NCC(=O)N[C@@H](CCC(=O)O)C(=O)NCCCCCCCC(=O)N[C@@H](CCCCNC(=O)CC[C@H](NC(=O)CNC(=O)CC[C@H](NC(=O)CCCCCCCCCCCCCCCCC(=O)O)C(=O)O)C(=O)O)C(N)=O)[C@@H](C)O)NC(=O)[C@H](CCCNC(=N)N)NC(=O)[C@H](Cc2c[nH]cn2)NC(=O)[C@H](CCC(=O)O)NC(=O)CNC(=O)[C@H](Cc2c[nH]c3ccccc23)NC(=O)[C@H](CC(=O)O)NC(=O)[C@H](CCC(N)=O)NC(=O)[C@H](Cc2cn(C)c3ccccc23)NC1=O [Compound 136] (Ac-SEFCI[Trp(1-Me)]QDWGEHRCTEGE[Aoc]K([γGlu-Gly-γGlu-C18 diacid])-NH2; disulfide 4-14) | > 7.00 |
| CC[C@H](C)[C@@H]1NC(=O)[C@@H](NC(=O)[C@H](Cc2ccccc2)NC(=O)[C@H](CCC(=O)O)NC(=O)[C@H](CO)NC(C)=O)CSSC[C@@H](C(=O)N[C@H](C(=O)N[C@@H](CCC(=O)O)C(=O)NCC(=O)N[C@@H](CCC(=O)O)C(=O)NCCCCCCCC(=O)N[C@@H](CCC(=O)O)C(=O)N[C@@H](CCCCNC(=O)CC[C@H](NC(=O)CNC(=O)CC[C@H](NC(=O)CCCCCCCCCCCCCCCCC(=O)O)C(=O)O)C(=O)O)C(N)=O)[C@@H](C)O)NC(=O)[C@H](CCCNC(=N)N)NC(=O)[C@H](Cc2c[nH]cn2)NC(=O)[C@H](CCC(=O)O)NC(=O)CNC(=O)[C@H](Cc2c[nH]c3ccccc23)NC(=O)[C@H](CC(=O)O)NC(=O)[C@H](CCC(N)=O)NC(=O)[C@H](Cc2cn(C)c3ccccc23)NC1=O [Compound 137] (Ac-SEFCI[Trp(1-Me)]QDWGEHRCTEGE[Aoc]EK([γGlu-Gly-γGlu-C18 diacid])-NH2; disulfide 4-14) | > 7.00 |
| CC[C@H](C)[C@@H]1NC(=O)[C@@H](NC(=O)[C@H](Cc2ccccc2)NC(=O)[C@H](CCC(=O)O)NC(=O)[C@H](CO)NC(C)=O)CSSC[C@@H](C(=O)N(C)CC(=O)N[C@@H](CCC(=O)O)C(=O)NCC(=O)N[C@@H](CCC(=O)O)C(=O)NCCOCCOCC(=O)N[C@@H](CCCCNC(=O)CC[C@H](NC(=O)CNC(=O)CC[C@H](NC(=O)CCCCCCCCCCCCCCCCC(=O)O)C(=O)O)C(=O)O)C(N)=O)NC(=O)[C@H](CCCNC(=N)N)NC(=O)[C@H](Cc2c[nH]cn2)NC(=O)[C@H](CCC(=O)O)NC(=O)CNC(=O)[C@H](Cc2c[nH]c3ccccc23)NC(=O)[C@H](CC(=O)O)NC(=O)[C@H](CCC(N)=O)NC(=O)[C@H](Cc2cn(C)c3ccccc23)NC1=O [Compound 138] (Ac-SEFCI[Trp(1-Me)]QDWGEHRC[Sar]EGE[AEEA]K([γGlu-Gly-γGlu-C18 diacid])-NH2; disulfide 4-14) | > 7.00 |
